According to article PMC8206078, “Identification of pyrogallol as a warhead in design of covalent inhibitors for the SARS-CoV-2 3CL protease” (Nature Communications, 2021):
“And” between values parts separate entries of the source, which are not always exact repeats. Equal entries are not always repeated. Where two headings read alike, the source gives them in different places.

Legend:
SARS-CoV-2 3CLpro [1] = target: T1, SARS-CoV-2 3CLpro (Severe acute respiratory syndrome coronavirus 2, UniProt P0DTD1); assay: biochemical; format: biochemical
[2] = target: SARS-CoV-2 3CLpro / HEK293T lysate (Severe acute respiratory syndrome coronavirus 2, UniProt P0DTD1); format: binding
SARS-CoV-2 3CLpro [3] = target: T1, SARS-CoV-2 3CLpro; details: read-out: KI
SARS-CoV-2 3CLpro [4] = target: T1, SARS-CoV-2 3CLpro
[5] = read-out: Inhibition (%) @10 μM
[6] = 6.25 µM, read-out: inhibition ratio (%)
[7] = 25 µM, read-out: inhibition ratio (%)
[8] = 50 µM, read-out: inhibition ratio (%)

COc1ccc(-c2oc3cc(O)cc(O)c3c(=O)c2O)cc1 [Kaempferide]
inhibition at 10 µM (SARS-CoV-2 3CLpro [1]; [5]): 8.1%

O=C1C[C@@H](c2ccc(O)c(O)c2)Oc2cc(O)cc(O)c21 [Eriodictyol]
inhibition at 10 µM (SARS-CoV-2 3CLpro [1]; [5]): 34.5%

O=c1c(O)c(-c2cc(O)c(O)c(O)c2)oc2cc(OP(=O)(Oc3ccccc3)Oc3ccccc3)cc(O)c12 [compound 9]
inhibition at 0.78125 µM (SARS-CoV-2 3CLpro [1]; 0.78125 µM, read-out: inhibition ratio (%)): 10.1% | inhibition at 3.125 µM (SARS-CoV-2 3CLpro [1]; 3.125 µM, read-out: inhibition ratio (%)): 57.7% | inhibition at 6.25 µM (SARS-CoV-2 3CLpro [1]; [6]): 78.1% | inhibition at 25 µM (SARS-CoV-2 3CLpro [1]; [7]): 96% | inhibition at 50 µM (SARS-CoV-2 3CLpro [1]; [8]): 99.4%

COc1ccc(-c2coc3cc(O)ccc3c2=O)cc1 [Formononetin]
inhibition at 10 µM (SARS-CoV-2 3CLpro [1]; [5]): 16%

(+)-Catechin
Inhibition (%) @10 μM (SARS-CoV-2 3CLpro [1]): 14.0%

COc1cc(O)c2c(=O)c(O)c(-c3cc(O)c(O)c(O)c3)oc2c1 [compound 3, 7-O-methyl myricetin]
IC50 (SARS-CoV-2 3CLpro [1]; IC50 (µM)): 0.31 µM | inhibition at 0.15625 µM (SARS-CoV-2 3CLpro [1]; read-out: inhibition ratio (%)): 28.3% | inhibition at 0.3125 µM (SARS-CoV-2 3CLpro [1]; read-out: inhibition ratio (%)): 43.1% | inhibition at 5 µM (SARS-CoV-2 3CLpro [1]; read-out: inhibition ratio (%)): 96.8% | inhibition at 10 µM (SARS-CoV-2 3CLpro [1]; read-out: inhibition ratio (%)): 98.5% | inhibition at […] (SARS-CoV-2 3CLpro [1]; read-out: inhibition ratio (%)): 89.4% and 96.2%

O=c1cc(-c2ccc(O)cc2)oc2cc(O)cc(O)c12 [Apigenin]
inhibition at 10 µM (SARS-CoV-2 3CLpro [1]; [5]): -1%

COc1cc(O)c2c(c1)O[C@H](c1cc(O)c(O)c(O)c1)[C@@H](O)C2=O [compound 7, 7-O-methyl dihydromyricetin]
IC50 (SARS-CoV-2 3CLpro [1]; IC50 (µM)): 270 nM (2×) and 240 nM | inhibition at 0.0488281 µM (SARS-CoV-2 3CLpro [1]; read-out: inhibition ratio (%)): 8.15% | inhibition at 0.0976562 µM (SARS-CoV-2 3CLpro [1]; read-out: inhibition ratio (%)): 25.7% | inhibition at 0.390625 µM (SARS-CoV-2 3CLpro [1]; read-out: inhibition ratio (%)): 54.6% | inhibition at 0.78125 µM (SARS-CoV-2 3CLpro [1]; read-out: inhibition ratio (%)): 84.2% | inhibition at 1.5625 µM (SARS-CoV-2 3CLpro [1]; read-out: inhibition ratio (%)): 97.1% | inhibition at 3.125 µM (SARS-CoV-2 3CLpro [1]; read-out: inhibition ratio (%)): 94.4% | inhibition at 6.25 µM (SARS-CoV-2 3CLpro [1]; read-out: inhibition ratio (%)): 98.2% | inhibition at 25 µM (SARS-CoV-2 3CLpro [1]; read-out: inhibition ratio (%)): 94.6% | inhibition at 50 µM (SARS-CoV-2 3CLpro [1]; read-out: inhibition ratio (%)): 95.6% | inhibition at […] (SARS-CoV-2 3CLpro [1]; read-out: inhibition ratio (%)): 36.2% and 99.3%

O=C1c2c(O)cc(OP(=O)(Oc3ccccc3)Oc3ccccc3)cc2O[C@H](c2cc(O)c(O)c(O)c2)[C@H]1O [compound 10]
inhibition at 6.25 µM (SARS-CoV-2 3CLpro [1]; [6]): 81.5% | inhibition at 25 µM (SARS-CoV-2 3CLpro [1]; [7]): 98.9% | inhibition at 50 µM (SARS-CoV-2 3CLpro [1]; [8]): 98.6% | inhibition at 100 µM (SARS-CoV-2 3CLpro [1]; 100 µM, read-out: inhibition ratio (%)): 99.4% | inhibition at 200 µM (SARS-CoV-2 3CLpro [1]; 200 µM, read-out: inhibition ratio (%)): 99.6%

O=c1cc(-c2ccc(O)c(O)c2)oc2cc(O)cc(O)c12 [Luteolin]
Inhibition (%) @10 μM (SARS-CoV-2 3CLpro [1]; 10 µM): -4.1%

O=c1c(O)c(-c2ccc(O)c(O)c2)oc2cc(O)cc(O)c12 [Quercetin]
inhibition at 10 µM (SARS-CoV-2 3CLpro [1]; [5]): 41.3%

O=C1c2c(O)cc(O)cc2O[C@H](c2cc(O)c(O)c(O)c2)[C@H]1O [dihydromyricetin]
Inhibition (%) @10 μM (SARS-CoV-2 3CLpro [1]; 10 µM): > 90% | inhibition at 10 µM (SARS-CoV-2 3CLpro [1]; [5]): 93.8% | inhibition at 0.3125 µM (SARS-CoV-2 3CLpro [1]; read-out: inhibition ratio (%)): 13% | inhibition at 0.390625 µM (SARS-CoV-2 3CLpro [1]; read-out: inhibition ratio (%)): 15% | inhibition at 0.625 µM (SARS-CoV-2 3CLpro [1]; read-out: inhibition ratio (%)): 24.1% | inhibition at 0.78125 µM (SARS-CoV-2 3CLpro [1]; read-out: inhibition ratio (%)): 39.3% | inhibition at 1.5625 µM (SARS-CoV-2 3CLpro [1]; read-out: inhibition ratio (%)): 58.9% | inhibition at 3.125 µM (SARS-CoV-2 3CLpro [1]; read-out: inhibition ratio (%)): 82.7% | inhibition at 5 µM (SARS-CoV-2 3CLpro [1]; read-out: inhibition ratio (%)): 87.5% | inhibition at 6.25 µM (SARS-CoV-2 3CLpro [1]; read-out: inhibition ratio (%)): 95% | inhibition at 10 µM (SARS-CoV-2 3CLpro [1]; read-out: inhibition ratio (%)): 97.8% | inhibition at 20 µM (SARS-CoV-2 3CLpro [1]; read-out: inhibition ratio (%)): 99.5% | inhibition at 40 µM (SARS-CoV-2 3CLpro [1]; read-out: inhibition ratio (%)): 98.8% | inhibition at […] (SARS-CoV-2 3CLpro [1]; read-out: inhibition ratio (%)): 45.2% and 85% and 98.5%

COc1ccc([C@@H]2CC(=O)c3c(O)cc(O)cc3O2)cc1O [Hesperetin]
inhibition at 10 µM (SARS-CoV-2 3CLpro [1]; [5]): 13.8%

COc1ccc(-c2cc(=O)c3c(O)cc(O)cc3o2)cc1O [Diosmetin]
inhibition at 10 µM (SARS-CoV-2 3CLpro [1]; [5]): 11.3%

O=c1c(-c2ccc(O)cc2)coc2cc(O)cc(O)c12 [Genistein]
inhibition at 10 µM (SARS-CoV-2 3CLpro [1]; [5]): 15%

O=c1c(O)c(-c2cc(O)c(O)c(O)c2)oc2cc(O)cc(O)c12 [myricetin, 3,5,7,3′,4′,5′-hexahydroxyflavone]
Inhibition (%) @10 μM (SARS-CoV-2 3CLpro [1]; 10 µM): > 90% | inhibition at 10 µM (SARS-CoV-2 3CLpro [1]; [5]): 97.6% | inhibition at 0.3125 µM (SARS-CoV-2 3CLpro [1]; read-out: inhibition ratio (%)): 27.5% | inhibition at 0.625 µM (SARS-CoV-2 3CLpro [1]; read-out: inhibition ratio (%)): 44.1% | inhibition at 5 µM (SARS-CoV-2 3CLpro [1]; read-out: inhibition ratio (%)): 96.1% | inhibition at 10 µM (SARS-CoV-2 3CLpro [1]; read-out: inhibition ratio (%)): 98.2% | inhibition at 20 µM (SARS-CoV-2 3CLpro [1]; read-out: inhibition ratio (%)): 97.9% | inhibition at 40 µM (SARS-CoV-2 3CLpro [1]; read-out: inhibition ratio (%)): 98.8% | inhibition at […] (SARS-CoV-2 3CLpro [1]; read-out: inhibition ratio (%)): 65.6% and 85.5% | fluorescent labeling in mixture of HEK293T lysate and recombinant 3CLpro [2]: only significantly reduced the fluorescent labeling of the protease | fluorescent labeling of recombinant SARS-CoV-2 3CLpro by maleimide probe [2]: completely block | KI (inactivation) (SARS-CoV-2 3CLpro [3]): 16900 nM and 15200 nM and 15000 nM | increase in molecular weight of the protease (covalent labeling) (SARS-CoV-2 3CLpro [4]): 316 Da

O=c1c(-c2ccc(O)cc2)coc2cc(O[C@@H]3O[C@H](CO)[C@@H](O)[C@H](O)[C@H]3O)cc(O)c12 [Genistin]
inhibition at 10 µM (SARS-CoV-2 3CLpro [1]; [5]): 25.5%

O=C1c2c(O)cc(O)cc2OC(c2ccc(O)c(O)c2)C1O (stereo not shown) [Taxifolin]
inhibition at 10 µM (SARS-CoV-2 3CLpro [1]; [5]): 28%

O=c1c(O)c(-c2cc(O)c(O)c(O)c2)oc2cc(OCC3CCCC3)cc(O)c12 [compound 6, 7-O-cyclopentylmethyl-myricetin]
IC50 (SARS-CoV-2 3CLpro [1]; read-out: IC50): 2.23 µM and 2.28 µM and 2.8 µM and 2.48 µM

COc1cc(-c2oc3cc(O)cc(O)c3c(=O)c2O)ccc1O [Isorhamnetin]
inhibition at 10 µM (SARS-CoV-2 3CLpro [1]; [5]): -2.6%

Biochanin A
Inhibition (%) @10 μM (SARS-CoV-2 3CLpro [1]): 5.0%

O=c1c(-c2ccc(O[C@@H]3O[C@H](CO)[C@@H](O)[C@H](O)[C@H]3O)cc2)coc2cc(O)cc(O)c12 [Sophoricoside]
inhibition at 10 µM (SARS-CoV-2 3CLpro [1]; [5]): 10%
